Reference: US12116388B2, “Amylin receptor agonists” (Novo Nordisk A/S, priority 2022, dated 2024)
Starred links: 1 amine or outer side, 2 acyl side, 3 side chain; linkers in the order of their positions; H or OH if unused. Residues, ends and D or L forms follow the SMILES beside them. Groups on a side chain read outwards from the residue. *: point of attachment. C18 diacid = O=C(O)CCCCCCCCCCCCCCCCC(=O)*; γGlu = O=C(O)[C@H](CCC(=O)[*:2])N[*:1]

What follows are compounds tested against T1, human calcitonin receptor (hCTR) (Homo sapiens, UniProt P30988) (assay: Human calcitonin receptor (hCTR) in vitro potency assay, CRE-luciferase reporter in BHK cells). Details: BHK hCTR/CRE-Luc cells, 3 hours incubation, assay buffer with 1% ovalbumin; read-out: hCalcR potency, EC50.
T1 construct: host or cells: BHK (Baby Hamster Kidney), Hollex-1 cell line
T1 sequence (P30988 25-474): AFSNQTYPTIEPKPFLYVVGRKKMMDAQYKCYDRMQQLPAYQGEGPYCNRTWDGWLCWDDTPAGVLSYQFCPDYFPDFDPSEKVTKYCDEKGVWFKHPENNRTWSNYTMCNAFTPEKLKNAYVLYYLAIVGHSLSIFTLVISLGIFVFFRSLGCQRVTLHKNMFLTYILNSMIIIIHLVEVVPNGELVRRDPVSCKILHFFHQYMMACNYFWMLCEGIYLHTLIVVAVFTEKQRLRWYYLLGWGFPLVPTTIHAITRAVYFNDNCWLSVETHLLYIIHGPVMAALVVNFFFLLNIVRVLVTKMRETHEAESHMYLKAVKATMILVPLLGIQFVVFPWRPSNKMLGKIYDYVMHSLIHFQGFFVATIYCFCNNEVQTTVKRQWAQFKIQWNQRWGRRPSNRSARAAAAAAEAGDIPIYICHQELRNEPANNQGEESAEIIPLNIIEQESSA
Format: cell-based
Method in brief: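 BHK cells stably co-expressing human calcitonin receptor and a CRE-luciferase reporter, seeded the day before, were exposed to 7-fold serial dilutions (7 concentrations, often starting near 10 nM) in DMEM/HEPES/1% ovalbumin buffer for 3 h at 37 °C. Luminescence was then read after SteadyLite Plus addition.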

With `CC[C@H](C)[C@H](NC(=O)[C@@H]1CCCN1C(=O)CNC(=O)[C@H](Cc1ccccc1)NC(=O)[C@H](CC(N)=O)NC(=O)[C@H](CC(=O)O)NC(=O)[C@H](CO)NC(=O)[C@H](CO)NC(=O)[C@H](Cc1c[nH]cn1)NC(=O)[C@H](Cc1c[nH]cn1)NC(=O)[C@H](CC(C)C)NC(=O)[C@H](Cc1ccccc1)NC(=O)[C@H](CCC(=O)O)NC(=O)[C@H](C)NC(=O)[C@H](CC(C)C)NC(=O)[C@H](CCCNC(=N)N)NC(=O)[C@H](C)NC(=O)[C@@H](NC(=O)[C@H](CCC(N)=O)NC(=O)[C@H](C)NC(=O)[C@@H](NC(=O)[C@H](CO)NC(=O)[C@H](CC(C)C)NC(=O)[C@H](CCC(N)=O)NC(=O)[C@H](CO)NC(=O)[C@H](C)NC(=O)CC[C@H](NC(=O)CCCCCCCCCCCCCCCCC(=O)O)C(=O)O)[C@@H](C)O)[C@@H](C)O)C(=O)N[C@@H](CC(C)C)C(=O)N1CCC[C@H]1C(=O)N1CCC[C@H]1C(=O)N[C@H](C(=O)N[C@@H](CC(=O)O)C(=O)N[C@H](C(=O)NCC(=O)N[C@@H](CO)C(=O)N[C@@H](CC(N)=O)C(=O)N[C@H](C(=O)N1CCC[C@H]1C(N)=O)[C@@H](C)O)C(C)C)[C@@H](C)O` [Compound 22, N^1-[(4S)-4-carboxy-4-(17-carboxyheptadecanoylamino)butanoyl]-[Ala1,Ser2,Gln3,Leu4,Ser5,Ala7,Gln8,Ala10,Glu14,His17,Asp21,Pro25,Pro28,Pro29,Asp31,Pro37]-human amylin] ({C18 diacid-γGlu}-ASQLSTAQTARLAEFLHHSSDNFGPILPPTDVGSNTP-NH2) as the compound, how does the EC50 read?
The EC50 was 1.86 pM.

How did the EC50 turn out when `CC[C@H](C)[C@H](NC(=O)[C@H](C)NC(=O)CNC(=O)[C@H](Cc1ccccc1)NC(=O)[C@@H]1CCCN1C(=O)[C@H](CC(=O)O)NC(=O)[C@H](CO)NC(=O)[C@H](CO)NC(=O)[C@H](Cc1c[nH]cn1)NC(=O)[C@H](Cc1c[nH]cn1)NC(=O)[C@H](CC(C)C)NC(=O)[C@H](Cc1ccccc1)NC(=O)[C@H](CCC(=O)O)NC(=O)[C@H](C)NC(=O)[C@H](CC(C)C)NC(=O)[C@H](CCCNC(=N)N)NC(=O)[C@H](CCC(N)=O)NC(=O)[C@@H](NC(=O)[C@H](CCC(N)=O)NC(=O)[C@H](C)NC(=O)[C@@H](NC(=O)[C@H](CO)NC(=O)[C@H](CC(C)C)NC(=O)[C@H](CCC(N)=O)NC(=O)[C@H](CO)NC(=O)[C@H](C)NC(=O)CC[C@H](NC(=O)CCCCCCCCCCCCCCCCC(=O)O)C(=O)O)[C@@H](C)O)[C@@H](C)O)C(=O)N1CCC[C@H]1C(=O)N[C@@H](CO)C(=O)N[C@@H](CO)C(=O)N[C@H](C(=O)N[C@@H](CC(=O)O)C(=O)N[C@H](C(=O)NCC(=O)N1CCC[C@H]1C(=O)N[C@@H](CC(=O)O)C(=O)N[C@H](C(=O)N1CCC[C@H]1C(N)=O)[C@@H](C)O)C(C)C)[C@@H](C)O` [Compound 24] ({C18 diacid-γGlu}-ASQLSTAQTQRLAEFLHHSSDPFGAIPSSTDVGPDTP-NH2) was run?
The EC50 was 1.56 pM.

For `CC[C@H](C)[C@H](NC(=O)[C@H](C)NC(=O)CNC(=O)[C@H](Cc1ccccc1)NC(=O)[C@@H]1CCCN1C(=O)[C@H](CC(=O)O)NC(=O)[C@H](CO)NC(=O)[C@H](CO)NC(=O)[C@H](Cc1c[nH]cn1)NC(=O)[C@H](Cc1c[nH]cn1)NC(=O)[C@H](CC(C)C)NC(=O)[C@H](Cc1ccccc1)NC(=O)[C@H](CCC(=O)O)NC(=O)[C@H](C)NC(=O)[C@H](CC(C)C)NC(=O)[C@H](CCCNC(=N)N)NC(=O)[C@H](C)NC(=O)[C@@H](NC(=O)[C@H](CCC(N)=O)NC(=O)[C@H](C)NC(=O)[C@@H](NC(=O)[C@H](CO)NC(=O)[C@H](CC(C)C)NC(=O)[C@H](Cc1c[nH]cn1)NC(=O)[C@H](CO)NC(=O)[C@H](C)NC(=O)CC[C@H](NC(=O)CCCCCCCCCCCCCCCCC(=O)O)C(=O)O)[C@@H](C)O)[C@@H](C)O)C(=O)N1CCC[C@H]1C(=O)N[C@@H](CO)C(=O)N[C@@H](CO)C(=O)N[C@H](C(=O)N[C@@H](CC(=O)O)C(=O)N[C@H](C(=O)NCC(=O)N1CCC[C@H]1C(=O)N[C@@H](CC(=O)O)C(=O)N[C@H](C(=O)N1CCC[C@H]1C(N)=O)[C@@H](C)O)C(C)C)[C@@H](C)O` [Compound 25, N^1-[(4S)-4-carboxy-4-(17-carboxyheptadecanoylamino)butanoyl]-[Ala1,Ser2,His3,Leu4,Ser5,Ala7,Gln8,Ala10,Glu14,His17,Asp21,Pro22,Pro27,Asp31,Pro34,Asp35,Pro37]-human amylin] ({C18 diacid-γGlu}-ASHLSTAQTARLAEFLHHSSDPFGAIPSSTDVGPDTP-NH2), which EC50 is on record?
Its EC50 is 1.5 pM.

How did the EC50 turn out when `CC[C@H](C)[C@H](NC(=O)[C@H](CCCCNC(=O)CC[C@H](NC(=O)CCCCCCCCCCCCCCCCC(=O)O)C(=O)O)NC(=O)CNC(=O)[C@H](Cc1ccccc1)NC(=O)[C@H](CC(N)=O)NC(=O)[C@H](CC(=O)O)NC(=O)[C@H](CO)NC(=O)[C@H](CO)NC(=O)[C@H](Cc1c[nH]cn1)NC(=O)[C@H](Cc1c[nH]cn1)NC(=O)[C@H](CC(C)C)NC(=O)[C@H](Cc1ccccc1)NC(=O)[C@H](CCC(=O)O)NC(=O)[C@H](C)NC(=O)[C@H](CC(C)C)NC(=O)[C@H](CCCNC(=N)N)NC(=O)[C@H](C)NC(=O)[C@@H](NC(=O)[C@H](CCC(N)=O)NC(=O)[C@H](C)NC(=O)[C@@H](NC(=O)[C@H](CO)NC(=O)[C@H](CC(C)C)NC(=O)[C@H](Cc1c[nH]cn1)NC(=O)[C@H](CO)NC(=O)[C@H](C)NC(C)=O)[C@@H](C)O)[C@@H](C)O)C(=O)N[C@@H](CC(C)C)C(=O)N1CCC[C@H]1C(=O)N1CCC[C@H]1C(=O)N[C@H](C(=O)N[C@@H](CC(=O)O)C(=O)N[C@H](C(=O)NCC(=O)N[C@@H](CO)C(=O)N[C@@H](CC(N)=O)C(=O)N[C@H](C(=O)N1CCC[C@H]1C(N)=O)[C@@H](C)O)C(C)C)[C@@H](C)O` [Compound 41, N^1-acetyl,N{Epsilon-25}-[(4S)-4-carboxy-4-(17-carboxyheptadecanoylamino)butanoyl]-[Ala1,Ser2,His3,Leu4,Ser5,Ala7,Gln8,Ala10,Glu14,His17,Asp21,Lys25,Pro28,Pro29,Asp31,Pro37]-human amylin] (Ac-ASHLSTAQTARLAEFLHHSSDNFGK([γGlu-C18 diacid])ILPPTDVGSNTP-NH2) was run?
Its EC50 is 1.16 pM.
